Key:
Experiment in all cases: Cryopreservation success rate after dormancy induction in sugar-supplemented medium
[1] = test system: Sp. polyrrhiza; assay type: in vivo, Spirodela polyrrhiza; settings: single sugars 90 mg/ml unless the label says 20 mg/ml, six sugar combo 15 mg/ml each
[2] = test system: IFN61-B2-101 line; assay type: in vivo, Lemna minor
Procedure: (§1) Lemna minor duckweed plants were cultured on Schenk and Hildebrandt media with 20 mg/ml sucrose at an aerial temperature of between 21° C. and 30° C. and light levels ranging from 200 μM·M^−2·sec^−1 to 450 μM·M^−2·sec^−1 for 1 day up to 1 year. Three frond colonies (each frond colony comprised one or more daughter fronds attached to the mother frond) were aseptically transferred into a 2.0-mL cryovial containing a 900 μL solution of Schenk and Hildebrandt media, […] step. The frond colonies were incubated in this sugar solution for 21-30 days. Each 24-hour photoperiod was comprised of fluctuations in temperature and light levels. Specifically, the daytime hours consisted of culturing the duckweed frond colony at an aerial temperature of 10° C. with a light level of about 25 μM·M^−2·sec^−1 to about 50 μM·M^−2·sec^−1 for a duration of 3 hours, followed by an aerial temperature of 15° C. at a light level of about 25 μM·M^−2·sec^−1 to about 75 μM·M^−2·sec^−1 for a duration of 6 hours, and an aerial temperature of 10° C. with a light level of about 25 μM^−2·sec^−1 to about 50 μM·M^−2·sec^−1 for a duration of 3 hours. During the nighttime hours of the 24-hour photoperiod, the duckweed frond colonies were cultured at an aerial temperature of 4° C. in the absence of light for a duration of 12 hours.
(§2) The duckweed frond colonies were dehydrated in a laminar flow hood in 900 μL of a cryoprotective solution, comprising 1.92 M DMSO, […], 3.26 M glycerol, and 0.4 M sucrose at pH 5.8. The cryovials were incubated in this solution at 4° C. for 30 minutes to 2 hours in the absence of light. Following the incubation, the cryoprotective solution was removed and replaced with 900 μL of fresh cryoprotective solution.
(§3) The duckweed frond colonies were frozen in a slow rate freezer according to the following freezing protocol. The cryovials containing the duckweed frond colonies were held at 4° C. and the temperature was lowered to −4° C. at 1° C. per minute, to −40° C. at 25° C. per minute, and then raised to −12° C. at 10° C. per minute. The temperature was again lowered to −40° C. at 1° C. per minute, to −90° C. at 10° C. per minute, and then lowered to −150° C. at 10° C. per minute. Once frozen, the vials containing the frond colonies were transferred to the vapor phase of liquid nitrogen for storage.
(§4) After up to 17 months in storage, the frozen duckweed frond colonies were thawed and recovered as follows. The vials containing the frozen duckweed frond colonies were transferred from the liquid nitrogen storage tank to a laminar flow hood and were thawed at room temperature for approximately ten minutes. The cryoprotective solution was removed and replaced with 900 μL of Schenk and Hildebrandt medium, supplemented with 1.2 M sucrose, followed by a ten minute incubation at room temperature. The 1.2 M sucrose was subsequently diluted by a series of five dilutions whereby 450 μL of the 1.2 M sucrose solution was removed and replaced with 450 μL of Schenk and Hildebrandt medium supplemented with 20 mg/ml sucrose. Following the serial dilutions, the frond colonies were transferred to a petri dish with Schenk and Hildebrandt medium, supplemented with 10 mg/ml sucrose and 1% (weight/volume) agar. The duckweed frond colonies were cultured at an aerial temperature of between 21° C. and 30° C. with light levels ranging from about 20 μM·M^−2·sec^−1 to about 100 μM·M^−2·sec^−1 for 7-14 days prior to calculating the success rate of the cryopreservation procedure.
(§5) The cryopreservation success rate was calculated by the total number of visible daughter fronds (or daughter fronds with viable tissue) to survive the freezing process and successfully reproduce new daughter fronds as a percentage of the total number of visible daughter fronds that were frozen. Viability of tissue or of daughter fronds was assessed by the presence of green tissue and the ability of these fronds or frond tissues to reproduce and generate new daughter fronds. […]

[3] = test system: L. yungensis; assay type: in vivo, Lemna yungensis; settings: single sugars 90 mg/ml unless the label says 20 mg/ml, six sugar combo 15 mg/ml each
[4] = test system: L. sp. Branson; assay type: in vivo
Procedure: as §1, §2, §3, §4, §5

[5] = test system: L. minor; assay type: in vivo, Lemna minor
Procedure: (§6) Lemna minor duckweed plants were cultured on Schenk and Hildebrandt media with 20 mg/ml sucrose at an aerial temperature of between 21° C. and 30° C. and light levels ranging from […] for 1 day up to 1 year. Three frond colonies (each frond colony comprised one or more daughter fronds attached to the mother frond) were aseptically transferred into a 2.0-mL cryovial containing a 900 μL solution of Schenk and Hildebrandt media, supplemented with 15 mg/ml of each D-trehalose dihydrate, sucrose, D-sorbitol, D-raffinose pentahydrate, D-glucose, and D-mannitol for the dormancy-induction step. The frond colonies were incubated in this sugar solution for 21-30 days. Each 24-hour photoperiod was comprised of fluctuations in temperature and light levels. Specifically, the daytime hours consisted of culturing the duckweed frond colony at an aerial temperature of 10° C. with a light level of about 25 μM·M^−2·sec^−1 to about 50 μM·M^−2·sec^−1 for a duration of 3 hours, followed by an aerial temperature of 15° C. at a light level of about 25 μM·M^−2·sec^−1 to about 75 μM·M^−2·sec^−1 for a duration of 6 hours, and an aerial temperature of 10° C. with a light level of about 25 μM^−2·sec^−1 to about 50 μM·M^−2·sec^−1 for a duration of 3 hours. During the nighttime hours of the 24-hour photoperiod, the duckweed frond colonies were cultured at an aerial temperature of 4° C. in the absence of light for a duration of 12 hours.
as §2, §3, §4
(§7) The cryopreservation success rate was calculated by the total number of visible daughter fronds (or daughter fronds with viable tissue) to survive the freezing process and successfully reproduce new daughter fronds as a percentage of the total number of visible daughter fronds that were frozen. […]

[6] = test system: BAP01-B2-230 line; assay type: in vivo, Lemna minor
Procedure: as §6, §2, §3, §4, §7

[7] = sugars at two concentrations: 90 mg/ml (1X) and 270 mg/ml (3X), listed as Sucrose 1X
[8] = sugars at two concentrations: 90 mg/ml (1X) and 270 mg/ml (3X), listed as Sucrose 3X
[9] = various concentrations of six sugar combination: total sugar 90 (1X), 216 (2.4X), 342 mg/ml (3.8X), or 20 mg/ml sucrose
[10] = second set of experiments, single sugars 90 mg/ml unless the label says 20 mg/ml, six sugar combo 15 mg/ml each

OC[C@H]1O[C@@](CO)(O[C@H]2O[C@H](CO)[C@@H](O)[C@H](O)[C@H]2O)[C@@H](O)[C@@H]1O [Sucrose, sucrose]
Cryopreservation success rate ([1]; first set of experiments): 0% (0/10) | Cryopreservation success rate ([1]; first set of experiments, listed as 20 mg/ml Sucrose): 0% (0/14) | Cryopreservation success rate ([1]; second set of experiments): 0% (0/12) | Cryopreservation success rate [2, 7]: 89.5% | Cryopreservation success rate [2, 8]: 0% | Cryopreservation success rate [2, 9]: 100% | Cryopreservation success rate ([3]; first set of experiments): 0% | Cryopreservation success rate ([3]; second set of experiments): 0% | Cryopreservation success rate ([4]; first set of experiments, single sugars 90 mg/ml unless the label says 20 mg/ml, six sugar combo 15 mg/ml each, in Schenk and Hildebrandt media during dormancy induction): 100% (23/23) | Cryopreservation success rate ([4]; first set of experiments, single sugars 90 mg/ml unless the label says 20 mg/ml, six sugar combo 15 mg/ml each, in Schenk and Hildebrandt media during dormancy induction, listed as 20 mg/ml Sucrose): 96% (24/25) | Cryopreservation success rate [4, 10]: 87.5% (14/16) | Cryopreservation success rate ([4]; second set of experiments, single sugars 90 mg/ml unless the label says 20 mg/ml, six sugar combo 15 mg/ml each, listed as 20 mg/ml Sucrose): 88.2% (15/17) | Cryopreservation success rate [4, 7]: 100% (19/19) | Cryopreservation success rate [4, 8]: 0% (0/14) | Cryopreservation success rate [4, 9]: 100% (24/24) | Cryopreservation success rate ([5]; dormancy induction 21-Day, fluctuating temperature and light): 93.75% (30/32) | Cryopreservation success rate ([5]; first set of experiments, single sugars 90 mg/ml unless the label says 20 mg/ml, six sugar combo 15 mg/ml each): 36.8% (7/19) | Cryopreservation success rate [5, 10]: 91.7% (11/12) | Cryopreservation success, in words ([5]; summary of Tables 6 and 7): lower cryopreservation success rates | Cryopreservation success rate [6, 7]: 100% (16/16) | Cryopreservation success rate [6, 8]: 0% (0/12) | Cryopreservation success rate [6, 9]: 60.9% (14/23)
